Results on 26 compounds are retold here after US20140128380A1, “METHODS OF MODULATING THE ACTIVITY OF THE MC1 RECEPTOR AND TREATMENT OF CONDITIONS RELATED TO THIS RECEPTOR” (Mimetica Pty Ltd, priority 2009, published 2014).

Molecules are shown by their SMILES.

In general, IC50 refers to the concentration that inhibits the measured activity by half.

In the experiment the target is T1, human MC1R (hMC1R) (Homo sapiens, UniProt Q01726).
T1 construct: purchased Perkin Elmer ES-195-M400UA
T1 sequence (Q01726 whole entry): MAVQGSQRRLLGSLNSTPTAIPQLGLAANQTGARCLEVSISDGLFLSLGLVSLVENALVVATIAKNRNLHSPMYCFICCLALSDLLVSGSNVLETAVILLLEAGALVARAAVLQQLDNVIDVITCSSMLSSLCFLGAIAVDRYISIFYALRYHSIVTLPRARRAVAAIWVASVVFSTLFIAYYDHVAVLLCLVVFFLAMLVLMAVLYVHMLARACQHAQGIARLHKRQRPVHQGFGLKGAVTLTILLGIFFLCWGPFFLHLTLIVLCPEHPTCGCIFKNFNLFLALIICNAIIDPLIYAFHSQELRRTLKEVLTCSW
As to the kind of experiment: Human MC1R radioligand binding assay (displacement of 125I-labeled NDP-MSH, Perkin Elmer hMC1R membranes). The note with it: displacement of [125I]NDP-MSH, compounds tested as trifluoroacetate or hydrochloride salts or free base. The protocol: Assessments of compound binding to human MC1R (hMC1R)) by displacement of an ^125I-labeled NDP-MSH receptor ligand peptide were performed essentially as described in the data sheets produced by Perkin Elmer to accompany their frozen hMC1R membranes (Perkin Elmer catalog number ES-195-M400UA).
[^125I] NDP-MSH: radiolabeled in house and purified by HPLC:
Na ^125I (0.5 mCi, 17.4 Ci/mg) was added to 50 μL sodium phosphate (50 mM, pH 7.4) in an eppendorf tube precoated with IODOGEN. After incubation for 10 mins the phosphate buffer containing the iodine was added to NDP-MSH (10 ul at 1 mg/mL) in a separate eppendorf tube. This was incubated for a further 10 mins. The iodinated NDP-MSH was purified by HPLC on a Zorbax SB 300 column using solvent A: 0.05% TFA and solvent B: 90% acetonitrile 0.045% TFA with a linear gradient, 0-67% B over 60 mins.
Perkin Elmer frozen hMC1 membranes: catalog number ES-195-M400UA, 0.4 mL/vial; 400 microassays/vial, 0.78 mg/mL protein concentration
Vials of frozen membranes were thawed rapidly immediately before use, diluted with binding buffer and vortexed. Resuspended membranes were kept on ice until they were added to the wells of the plate.
Assays were performed in 96 well polypropylene plates. […] This was incubated for 1 hr at 37° C.
In general terms: In a radioligand displacement assay an active substance lowers the binding of a labelled ligand.
Take `CNC(=O)[C@H](Cc1ccc2ccccc2c1)N1CC[C@H]2CN(Cc3ccc(F)cc3)C(=O)N2[C@@H](CCCNC(=N)N)C1=O` [Compound 142, (S)-2-((5S,9aS)-2-(4-fluorobenzyl)-5-(3-guanidinopropyl)-3,6-dioxotetrahydro-1H-imidazo[1,5-d][1,4]diazepin-7(8H,9H,9aH)-yl)-N-methyl-3-(naphthalen-2-yl)propanamide]: the IC50 is under 10 µM.

As to `CNC(=O)[C@H](Cc1ccc2ccccc2c1)N1CC[C@H](CNC(=O)[C@H](N)Cc2ccc(F)cc2)N[C@@H](CCCNC(=N)N)C1=O` [Compound 168, (R)-2-amino-3-(4-fluorophenyl)-N-(((3S,5R)-3-(3-guanidinopropyl)-1-((S)-1-(methylamino)-3-(naphthalen-2-yl)-1-oxopropan-2-yl)-2-oxo-1,4-diazepan-5-yl)methyl)propanamide], the IC50 was under 10 µM.

`CC(=O)N[C@@H](Cc1c[nH]cn1)C(=O)N[C@@H](Cc1ccccc1)[C@@H]1CCN(CCc2c[nH]c3ccccc23)C(=O)[C@H](CCCNC(=N)N)N1` [Compound 118, (S)—N—((S)-1-((3S,5S)-1-(2-(1H-indol-3-yl)ethyl)-3-(3-guanidinopropyl)-2-oxo-1,4-diazepan-5-yl)-2-phenylethyl)-2-acetamido-3-(1H-imidazol-4-yl)propanamide]: the IC50 was under 10 µM.

With `O=C(/C=C/c1ccc(Cl)cc1)NC[C@@H]1CCN(CC(c2ccccc2)c2ccccc2)C(=O)[C@H](CN2CCCCC2)N1` [Compound 134, (E)-3-(4-chlorophenyl)-N-(((3S,5S)-1-(2,2-diphenylethyl)-2-oxo-3-(piperidin-1-ylmethyl)-1,4-diazepan-5-yl)methyl)acrylamide], the IC50 was under 10 µM.

Turning to `NCCC[C@@H]1N[C@H](CNC(=O)c2ccc(Cl)c(Cl)c2)CCN(CC(c2ccccc2)c2ccccc2)C1=O` [Compound 123], the IC50 is under 10 µM.

Take `N=C(N)NCCC[C@@H]1N[C@H](CNC(=O)c2ccc3ccccc3c2)CCN(c2ccc3ccccc3c2)C1=O` [Compound 125, N-(((3S,5S)-3-(3-guanidinopropyl)-1-(naphthalen-2-yl)-2-oxo-1,4-diazepan-5-yl)methyl)-2-naphthamide]: the IC50 is under 10 µM.

Consider `N=C(N)NCCC[C@@H]1N[C@H](CNC(=O)c2ccc(-c3ccccc3)cc2)CCN(CC(c2ccccc2)c2ccccc2)C1=O` [Compound 108, N-(((3S,5S)-1-(2,2-diphenylethyl)-3-(3-guanidinopropyl)-2-oxo-1,4-diazepan-5-yl)methyl)biphenyl-4-carboxamide], for which the IC50 is under 10 µM.

As for `O=C(/C=C/c1ccc(Br)cc1)NC[C@@H]1CCN(CC(c2ccccc2)c2ccccc2)C(=O)[C@H](CCN2CCCCC2)N1` [Compound 161, (E)-3-(4-bromophenyl)-N-(((3S,5S)-1-(2,2-diphenylethyl)-2-oxo-3-(2-(piperidin-1-yl)ethyl)-1,4-diazepan-5-yl)methyl)acrylamide], the IC50 is under 10 µM.

As for `CC[C@H](CN1CC[C@@H](CNC(=O)c2ccc3cc(Cl)ccc3c2)N[C@@H](CCCN2CCCCC2)C1=O)c1ccccc1` [Compound 163, 6-chloro-N-(((3S,5S)-2-oxo-1-((S)-2-phenylbutyl)-3-(3-(piperidin-1-yl)propyl)-1,4-diazepan-5-yl)methyl)-2-naphthamide], the IC50 is under 10 µM.

On to `CN(C[C@@H]1CCN(CC(c2ccccc2)c2ccccc2)C(=O)[C@H](CCCN)N1)C(=O)c1ccc2cc(Br)ccc2c1` [Compound 104, N-(((3S,5S)-3-(3-aminopropyl)-1-(2,2-diphenylethyl)-2-oxo-1,4-diazepan-5-yl)methyl)-6-bromo-N-methyl-2-naphthamide], for which the IC50 was under 10 µM.

As for `CC[C@H](CN1CC[C@@H](CNC(=O)c2ccc(Cl)c(Cl)c2)N[C@@H](CCN)C1=O)c1ccccc1` [Compound 170, N-(((3S,5S)-3-(2-aminoethyl)-2-oxo-1-((S)-2-phenylbutyl)-1,4-diazepan-5-yl)methyl)-3,4-dichlorobenzamide], the IC50 is under 10 µM.

For the compound `CC(C)c1ccc(/C=C/C(=O)NC[C@@H]2CCN(CC(c3ccccc3)c3ccccc3)C(=O)[C@H](CCN)N2)cc1` [Compound 156, (E)-N-(((3S,5S)-3-(2-aminoethyl)-1-(2,2-diphenylethyl)-2-oxo-1,4-diazepan-5-yl)methyl)-3-(4-isopropylphenyl)acrylamide], the IC50 is under 10 µM.

For `NCCC[C@@H]1N[C@H](CNC(=O)c2cc(-c3ccc(Cl)cc3)on2)CCN(CC(c2ccccc2)c2ccccc2)C1=O` [Compound 129], the IC50 was under 10 µM.

For the compound `O=C(NC[C@@H]1CCN(CC(c2ccccc2)c2ccccc2)C(=O)[C@H](CCN2CCCCC2)N1)c1ccc2cc(Cl)ccc2c1` [Compound 154, 6-chloro-N-(((3S,5S)-1-(2,2-diphenylethyl)-2-oxo-3-(2-(piperidin-1-yl)ethyl)-1,4-diazepan-5-yl)methyl)-2-naphthamide], the IC50 is under 10 µM.

Regarding `N=C(N)NCCC[C@@H]1N[C@H](CNC(=O)c2cccc(Oc3ccccc3)c2)CCN(CC(c2ccccc2)c2ccccc2)C1=O` [Compound 111, N-(((3S,5S)-1-(2,2-diphenylethyl)-3-(b3-guanidinopropyl)-2-oxo-1,4-diazepan-5-yl)methyl)-3-phenoxybenzamide], the IC50 is under 10 µM.

As to `NCCCC[C@H]1N[C@H](CNC(=O)c2ccc(-c3ccccc3)cc2)CCN(CCc2ccccc2)C1=O` [Compound 184, N-(((3R,5S)-3-(4-aminobutyl)-2-oxo-1-phenethyl-1,4-diazepan-5-yl)methyl)biphenyl-4-carboxamide], the IC50 was under 10 µM.

Consider `N=C(N)NCCC[C@@H]1N[C@H](CNC(=O)c2ccc3ccccc3c2)CCN(CCC2CCCCC2)C1=O` [Compound 130, N-(((3S,5S)-1-(2-cyclohexylethyl)-3-(3-guanidinopropyl)-2-oxo-1,4-diazepan-5-yl)methyl)-2-naphthamide], for which the IC50 was under 10 µM.

For the compound `NCC[C@@H]1N[C@H](CNC(=O)c2ccc(Cl)c(Cl)c2)CCN(CC(c2ccccc2)c2ccccc2)C1=O` [Compound 135, N-(((3S,5S)-3-(2-aminoethyl)-1-(2,2-diphenylethyl)-2-oxo-1,4-diazepan-5-yl)methyl)-3,4-dichlorobenzamide], the IC50 was under 10 µM.

Take `COc1c(C(=O)NC[C@@H]2CCN(CC(c3ccccc3)c3ccccc3)C(=O)[C@H](CCCNC(=N)N)N2)ccc2ccccc12` [Compound 115, N-(((3S,5S)-1-(2,2-diphenylethyl)-3-(3-guanidinopropyl)-2-oxo-1,4-diazepan-5-yl)methyl)-1-methoxy-2-naphthamide]: the IC50 was under 10 µM.

With `O=C(NC[C@@H]1CCN(CC(c2ccccc2)c2ccccc2)C(=O)[C@H](CCN2CCOCC2)N1)c1ccc2cc(Cl)ccc2c1` [Compound 181, 6-chloro-N-(((3S,5S)-1-(2,2-diphenylethyl)-3-(2-morpholinoethyl)-2-oxo-1,4-diazepan-5-yl)methyl)-2-naphthamide], the IC50 was under 10 µM.

`CNC(=O)[C@H](Cc1ccc2ccccc2c1)N1CC[C@H](CNC(=O)[C@H](N)Cc2ccc(Cl)cc2)N[C@@H](CCCNC(=N)N)C1=O` [Compound 174, (R)-2-amino-3-(4-chlorophenyl)-N-(((3S,5R)-3-(3-guanidinopropyl)-1-((S)-1-(methylamino)-3-(naphthalen-2-yl)-1-oxopropan-2-yl)-2-oxo-1,4-diazepan-5-yl)methyl)propanamide]: the IC50 was under 10 µM.

As to `N=C(N)NCCC[C@@H]1N[C@H](CNC(=O)c2ccc3ccccc3c2)CCN(CC(Oc2ccccc2)c2ccccc2)C1=O` (stereo partly drawn) [Compound 138, N-(((3S,5S)-3-(3-guanidinopropyl)-2-oxo-1-(2-phenoxy-2-phenylethyl)-1,4-diazepan-5-yl)methyl)-2-naphthamide], the IC50 was under 10 µM.

Regarding `CCC(CC)CN1CC[C@@H](CNC(=O)/C=C/c2ccc(Cl)cc2)N[C@@H](CCN)C1=O` [Compound 146, (E)-N-(((3S,5S)-3-(2-aminoethyl)-1-(2-ethylbutyl)-2-oxo-1,4-diazepan-5-yl)methyl)-3-(4-chlorophenyl)acrylamide], the IC50 is under 10 µM.

As to `CCC(CN1CC[C@@H](CNC(=O)c2ccc3ccccc3c2)N[C@@H](CCN)C1=O)c1ccccc1` (mixture of isomers) [Compound 102, N-(((3S,5S)-3-(2-aminoethyl)-2-oxo-1-(2-phenylbutyl)-1,4-diazepan-5-yl)methyl)-2-naphthamide], the IC50 is under 10 µM.

Regarding `O=C(NC[C@@H]1CCN(CC(c2ccccc2)c2ccccc2)C(=O)[C@H](CCN2CCCCC2)N1)c1ccc(Cl)c(Cl)c1` [Compound 137, 3,4-dichloro-N-(((3S,5S)-1-(2,2-diphenylethyl)-2-oxo-3-(2-(piperidin-1-yl)ethyl)-1,4-diazepan-5-yl)methyl)benzamide], the IC50 is under 10 µM.

For the compound `O=C(NC[C@@H]1CCN(CC(c2ccccc2)c2ccccc2)C(=O)[C@H](CCCNC2CCCCC2)N1)c1ccc2ccccc2c1` [Compound 124, N-(((3S,5S)-3-(3-(cyclohexylamino)propyl)-1-(2,2-diphenylethyl)-2-oxo-1,4-diazepan-5-yl)methyl)-2-naphthamide], the IC50 was under 10 µM.
